# Measurements as given in article PMC6078987, “Molecular insights into antibiotic resistance - how a binding protein traps albicidin” (Nature Communications, 2018).
# Tests used:
# Salmonella enteritidis = system: Salmonella enteritidis; set-up: method as in PMID 17074789, PMID 25504839; details: cited from earlier work
# Escherichia coli = system: Escherichia coli; set-up: method as in PMID 17074789, PMID 25504839; details: cited from earlier work
# [1] = system: AlbAS in competition with gyrase construct GyrBA59; assay: NMR-based in vitro competition experiment of AlbAS and GyrBA59; format: binding, E. coli; details: 30 µM each of GyrBA59, AlbAS and albicidin; MgCl2, ATP, pBR322
# Experimental: For the competition experiment with the DNA gyrase construct GyrBA59, 1.7 mM ATP was incubated with 3.4 mM MgCl2 for 10 min. Subsequently, 30 µM GyrBA59 and 3 µg supercoiled pBR322 plasmid DNA (Inspiralis) were added and incubated for another 10 min. Finally, 30 µM ^15N-labeled AlbAS were added to the mixture followed by 30 µM albicidin (10% D2O and 5% DMSO final concentration). Owing to the low protein concentrations (to achieve a 1:1 ratio of gyrase and AlbAS), a ^1H-^15N band-selective optimized flip-angle short-transient heteronuclear multiple quantum coherence (SOFAST HMQC)[44] experiment was performed. The ^1H-^15N SOFAST HMQC was recorded with 2048 scans and with acquisition times of 45 and 38 ms for the ^1H and ^15N dimensions, respectively. Measurements were performed at 303.2 K. The control experiment was performed under the same conditions but without the addition of MgCl2, ATP, pBR322 plasmid DNA, and GyrBA59.
# AlbAS = biological target: T1, AlbAS (Klebsiella oxytoca, UniProt Q8KRS7); assay: CD-detected thermal unfolding of AlbAS; format: binding; details: 1.5-fold ligand, 20 µM protein; AlbAS alone 66 °C
# T1 sequence (Q8KRS7 1-221): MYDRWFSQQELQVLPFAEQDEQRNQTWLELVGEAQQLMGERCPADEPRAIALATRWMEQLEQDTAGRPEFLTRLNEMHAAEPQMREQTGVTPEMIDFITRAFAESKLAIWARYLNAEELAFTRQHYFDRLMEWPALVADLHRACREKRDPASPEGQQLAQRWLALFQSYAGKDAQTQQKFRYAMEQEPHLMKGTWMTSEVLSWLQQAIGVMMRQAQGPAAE
# Experimental: For determination of the melting temperature and information on protein-ligand stability, CD measurements were performed on a J-815 CD spectrometer (Jasco, Groß-Umstadt, Germany). Protein samples (2.0 mM for AlbAS and 0.2 mM for AlbAL) were saturated with 1.5-fold albicidin and diluted to a protein concentration of 20 μM in order to ensure a final DMSO content of only 0.05% for AlbAS and 0.5% for AlbAL. A volume of 250 μL of the reaction mixture was transferred into a quartz cuvette with 1 mm path length. Six far-UV spectra were accumulated in a wavelength range of 195–300 nm (203–300 nm for AlbAL) at three different temperatures (10, 21, and 90 °C) with a scanning speed of 50 nm s^−1. For evaluation of the spectra the measured buffer blank (50 mM sodium hydrogen phosphate and 100 mM NaCl, pH 6.8) was subtracted from the averaged spectra. The temperature curves were recorded from 10–90 °C in 0.5 °C min^−1 steps while monitoring the ellipticity at 215 nm (218 nm for ALbAL). […] The melting temperatures of AlbAS, AlbAS–albicidin, AlbAS–compound 5, AlbAS–compound 7, AlbAL, and AlbAL–albicidin were determined by nonlinear regression of the measured data using Eq. (1). […] The Tm was thus determined by fitting the second transition representing the stabilized domain/species. […]
# AlbASCTD = AlbASCTD (Klebsiella oxytoca, UniProt Q8KRS7); assay: Fluorescence quenching binding assay with AlbASCTD; details: AlbASCTD 100 nM, n constrained to 1
# Experimental: Fluorescence quenching measurements were performed by monitoring tryptophan fluorescence of AlbAS (20 nM), AlbAL (20 nM), AlbASNTD, and AlbASCTD (100 nM) on a FluoroMax 2 spectrometer from Horiba (Potsdam, Germany). The excitation wavelength was set to λexc = 280 nm. Emission spectra were recorded from λem = 290–450 nm with a scanning speed of 1 nm s^−1 and an integration time of 1 s. The excitation and emission slit widths were set to 8 and 4 nm, respectively. Proteins were solved in 50 mM sodium phosphate buffer with 150 mM NaCl and 0.01% DMSO at pH 6.8. All measurements were performed twice and the standard deviation is given for the Kd and the Hill factor n. Data evaluation was performed by integration of the emission band (318–410 nm for AlbAS, 316–412 nm for AlbAL, and 319–390 nm for AlbASNTD and AlbASCTD) for every titration step. The area under the curve (AUC) of the buffer blank (buffer with 0.01% DMSO) was subtracted from the measured titration data. The quenching factor was determined by subtraction of AUCs for each titration step from the AUC of the protein in the absence of ligand. For determination of the AlbAS– and AlbAL–albicidin Kd values, the data were fitted to Eq. (2).2 Y=Bmax[L]^n/Kdn+[L]^n where [L], n, and Bmax denote the total ligand concentration, the Hill coefficient, and the maximum binding capacity of the protein, respectively.
smiles,measurement,setting,value
COc1c(NC(=O)c2ccc(NC(=O)c3ccc(NC(=O)[C@H](CC#N)NC(=O)c4ccc(NC(=O)/C(C)=C/c5ccc(O)cc5)cc4)cc3)c(OC)c2O)ccc(C(=O)O)c1O [albicidin],MIC,Salmonella enteritidis,0.5 µg/mL
same,MIC,Escherichia coli,0.063 µg/mL
same,competition between AlbAS and GyrBA59 for the ligand (in words),[1],AlbAS fully populated the albicidin-bound state
same,melting temperature Tm of AlbAS upon ligand binding,AlbAS,81 °C
same,Kd,AlbASCTD,0.6 ± 0.1 µM
